Test results reported in patent US6627604B2, “Memno peptides, process for their preparation and use thereof” (priority 2000, dated 2003).
In brackets after ≈: the same amount, converted by molar mass. Residues, ends and D or L forms follow the SMILES beside them. *: point of attachment. X1 = CC1CCC2C(C)(C)C(O)CCC2(C)C12Cc1c(O)cc3c(c1O2)CN(C(CC[S+](C)[O-])C(=O)*)C3=O

Columns and labels:
[1] = system: Streptococcus pyogenes VR3; assay: Minimum inhibitory concentration; type: cell-based; conditions: resistance against: Vancomycin
[2] = system: Streptococcus pyogenes 308A
G-6-P phosphatase = G-6-P phosphatase (Homo sapiens, UniProt P35575); assay: Inhibition of G-6-P phosphatase; type: biochemical
[3] = system: Staphylococcus aureus 9 Tüb
[4] = molecular target: glucose-6-phosphate translocase (G-6-P—TL) (Homo sapiens, UniProt O43826); assay: Inhibition of glucose-6-phosphate translocase; type: biochemical
[5] = system: Staphylococcus aureus 707E
SERCA2 = molecular target: T1, SERCA2 (Canis lupus familiaris, UniProt O46674); assay: Colorimetric Ca2+ ATPase (SERCA2) activation test in dog heart microsomes; type: biochemical; conditions: Ca2+ ATPase activity in dog heart microsomes, phosphate release at 620 nm
T1 construct: activity of the Ca^2+ ATPase in dog heart microsomes; from tissue; host or cells: dog heart microsomes
Text: For the detection of the activators of SERCA2 which imitate the phosphorylation effect of PLB, a […] test may be run which determines the activity of the Ca^2+ ATPase in dog heart microsomes in the presence of test substances. The test may be carried out in 96-well microtiter plates. The enzymatic release of inorganic phosphate from ATP, which forms a blue colored complex with ammonium molybdate which can be measured at 620 nm in a spectrophotometer, may be measured.

[6] = system: Staphylococcus aureus FH 1982
[7] = system: Staphylococcus aureus 701E
[8] = system: Staphylococcus aureus 285
[9] = system: Staph. epidermidis 5747IIW
[10] = system: Enterococcus faecium Md8B
[11] = system: Staphylococcus aureus SG 511
[12] = system: Staphylococcus aureus 503
[13] = system: Streptococcus pyogenes 77A

glucose-6-phosphate translocase (G-6-P—TL), sequence (O43826 whole entry, species assumed): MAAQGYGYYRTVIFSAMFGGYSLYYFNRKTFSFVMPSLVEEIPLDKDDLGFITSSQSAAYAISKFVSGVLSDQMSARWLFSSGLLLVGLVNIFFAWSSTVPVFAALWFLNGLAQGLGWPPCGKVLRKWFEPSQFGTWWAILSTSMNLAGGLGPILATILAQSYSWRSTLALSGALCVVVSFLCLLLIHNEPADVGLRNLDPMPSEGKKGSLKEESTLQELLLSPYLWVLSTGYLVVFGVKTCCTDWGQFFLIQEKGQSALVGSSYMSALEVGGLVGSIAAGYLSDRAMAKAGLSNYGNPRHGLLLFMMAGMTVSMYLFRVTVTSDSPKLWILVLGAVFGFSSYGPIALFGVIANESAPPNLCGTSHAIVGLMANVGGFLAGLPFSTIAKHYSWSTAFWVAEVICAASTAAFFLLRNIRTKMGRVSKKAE
G-6-P phosphatase, sequence (P35575 whole entry): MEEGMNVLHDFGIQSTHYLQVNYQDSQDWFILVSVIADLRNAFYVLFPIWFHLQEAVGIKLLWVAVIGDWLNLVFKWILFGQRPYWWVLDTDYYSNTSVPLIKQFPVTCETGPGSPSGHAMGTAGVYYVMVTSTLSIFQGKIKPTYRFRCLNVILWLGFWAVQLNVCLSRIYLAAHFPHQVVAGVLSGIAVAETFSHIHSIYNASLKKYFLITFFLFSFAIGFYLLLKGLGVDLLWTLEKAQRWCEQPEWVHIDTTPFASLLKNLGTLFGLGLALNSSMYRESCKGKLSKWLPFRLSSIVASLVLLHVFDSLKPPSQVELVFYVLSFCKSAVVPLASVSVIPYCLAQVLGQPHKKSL
T1 sequence (O46674 whole entry): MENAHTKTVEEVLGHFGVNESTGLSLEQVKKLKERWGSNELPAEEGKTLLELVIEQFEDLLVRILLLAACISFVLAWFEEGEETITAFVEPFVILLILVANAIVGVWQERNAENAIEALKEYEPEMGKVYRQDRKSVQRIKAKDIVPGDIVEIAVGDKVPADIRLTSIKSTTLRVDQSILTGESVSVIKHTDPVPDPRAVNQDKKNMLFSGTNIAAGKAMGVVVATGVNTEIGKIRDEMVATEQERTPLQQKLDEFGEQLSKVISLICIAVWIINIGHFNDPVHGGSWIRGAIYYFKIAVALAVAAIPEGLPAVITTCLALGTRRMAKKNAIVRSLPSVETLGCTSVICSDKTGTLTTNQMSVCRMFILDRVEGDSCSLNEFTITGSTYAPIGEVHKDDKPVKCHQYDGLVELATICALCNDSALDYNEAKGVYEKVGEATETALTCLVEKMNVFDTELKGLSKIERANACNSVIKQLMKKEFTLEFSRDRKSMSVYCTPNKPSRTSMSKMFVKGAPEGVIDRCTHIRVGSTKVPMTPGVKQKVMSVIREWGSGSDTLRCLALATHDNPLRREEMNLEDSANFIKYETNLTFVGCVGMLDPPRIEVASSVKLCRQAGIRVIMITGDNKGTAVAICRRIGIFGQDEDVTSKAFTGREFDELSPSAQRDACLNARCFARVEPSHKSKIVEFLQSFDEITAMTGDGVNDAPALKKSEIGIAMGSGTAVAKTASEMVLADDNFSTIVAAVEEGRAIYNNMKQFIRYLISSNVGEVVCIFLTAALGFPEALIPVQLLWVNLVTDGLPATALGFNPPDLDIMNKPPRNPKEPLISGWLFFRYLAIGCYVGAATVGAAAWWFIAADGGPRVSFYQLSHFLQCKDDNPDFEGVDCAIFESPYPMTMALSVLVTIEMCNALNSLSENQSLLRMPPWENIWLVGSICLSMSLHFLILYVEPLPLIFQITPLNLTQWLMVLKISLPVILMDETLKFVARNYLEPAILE

CC(C)CC(NC(=O)C1CCCN1C(=O)C(CCC(N)=O)NC(=O)C(Cc1c[nH]cn1)NC(=O)C1CCCN1C(=O)C(CCC(N)=O)NC(=O)C(Cc1cnc[nH]1)NC(=O)C(CC[S+](C)[O-])N1Cc2c(cc(O)c3c2OC2(C3)C(C)CCC3C(C)(C)C(O)CCC32C)C1=O)C(=O)N1CCCC1C(=O)N1CCCC1C(=O)O (stereo not drawn) [memno peptide A] (X1-HQPHQPLPP-OH; configuration not given here)
MIC (Staph. epidermidis 799): 8 µg/mL (≈ 5.11 µM)
MIC [1]: >64 µg/mL
MIC [2]: 8 µg/mL (≈ 5.11 µM)
MIC (Staph. epidermidis ZH 2c): 16 µg/mL (≈ 10.2 µM)
inhibition of the coenzyme G-6-P phosphatase (G-6-P phosphatase): does not inhibit
MIC [3]: 16 µg/mL (≈ 10.2 µM)
inhibitory action on glucose-6-phosphate translocase (G-6-P—TL) [4]: exhibits selective activities against G-6-P—TL
MIC [5]: 16 µg/mL (≈ 10.2 µM)
activates SERCA2 in concentrations from (SERCA2): ≥ 12.5 µM
MIC (Staph. epidermidis 291): 8 µg/mL (≈ 5.11 µM)
MIC (Enterococcus faecium VR1): >64 µg/mL
MIC [6]: 16 µg/mL (≈ 10.2 µM)
MIC (Staph. epidermidis 763): >16 µg/mL
MIC [7]: 16 µg/mL (≈ 10.2 µM)
MIC [8]: 16 µg/mL (≈ 10.2 µM)
MIC [9]: 32 µg/mL (≈ 20.4 µM)
MIC [10]: 8 µg/mL (≈ 5.11 µM)
MIC (Enterococcus faecium VR2): >64 µg/mL
MIC [11]: 16 µg/mL (≈ 10.2 µM)
MIC [12]: 16 µg/mL (≈ 10.2 µM)
MIC [13]: 4 µg/mL (≈ 2.55 µM)
